Data reported in patent publication US20110281869A1, “TETRAHYDROISOQUINOLINES AS ANTIMALARIAL AGENTS” (priority 2008, published 2011).
Like-named read-outs stand apart in the source and are kept apart here.

Test system: P. falciparum K1
Test: Plasmodium falciparum in vitro assay ([3H] hypoxanthine incorporation)
Assay type: cell-based
Details: erythrocytic stages, strain K1 resistant to chloroquine and pyrimethamine, human red cells, read-out: IC50 (nM) on K1
Method: In vitro antimalarial activity: Plasmodium falciparum in vitro assay In vitro activity against erythrocytic stages of P. falciparum is determined using a [^3H] hypoxanthine incorporation assay. One strain resistant to chloroquine and pyrimethamine (P. falciparum K1) is used in the assays, and all test compounds are compared for activity with the standard drugs chloroquine (sigma C6628) and artemisinin (sigma-36, 159-3). Compounds are diluted in DMSO to 1 mM and added to parasite cultures incubated in RPMI 1640 medium without hypoxanthine, supplemented with HEPES (5.94 g/L), NaHCO3 (2.1 g/L), neomycin (100 U/mL), Albumax (5 g/L) and washed human red cells at 2.5% hematocrit (0.3% parasitaemia). Seven serial doubling dilutions of each drug are prepared in 96-well microtitre plates and incubated in a humidifying atmosphere at 37° C.; 4% CO2, 3% O2, 93% N2.
After 48 h, 50 μl of [^3H] hypoxanthine (0.5 μCi) is added to each well of a plate. The plates are incubated for a further 24 h under the same conditions. The plates are then harvested with a Betaplate cell harvester (Wallac) and washed with distilled water. The dried filters are inserted into a plastic foil with 10 mL of scintillation fluid, and counted in a Betaplate liquid scintillation counter. IC50 values are calculated from sigmoidal inhibition curves using Microsoft Excel.

SMILES | IC50 (Plasmodium falciparum) [nM] | IC50 [nM]
Cc1nc(C)c(C=CC(=O)N(Cc2ccc(N3CCOCC3)cc2)[C@@H](Cc2ccccc2)C(=O)N2CCc3ccccc3C2)s1 [Example 251, (S)—N-[1-Benzyl-2-(3,4-dihydro-1H-isoquinolin-2-yl)-2-oxo-ethyl]-3-(2,4-dimethyl-thiazol-5-yl)-N-(4-morpholin-4-yl-benzyl)-acrylamide] | 42 | 
Cc1nc(C=CC(=O)N(Cc2ccc(-c3cncnc3)cc2)[C@@H](Cc2ccccc2)C(=O)N2CCc3ccccc3C2)c(C)o1 [Example 253, (S)—N-[1-Benzyl-2-(3,4-dihydro-1H-isoquinolin-2-yl)-2-oxo-ethyl]-3-(2,5-dimethyl-oxazol-4-yl)-N-(4-pyrimidin-5-yl-benzyl)-acrylamide] | 70 | 
O=C([C@H](Cc1ccccc1)N(Cc1ccc(-c2cc[n+]([O-])cc2)cc1)C(=O)C=Cc1ccc(C(F)(F)F)cc1)N1CCc2ccccc2C1 [Example 254, (S)—N-[1-Benzyl-2-(3,4-dihydro-1-H-isoquinolin-2-yl)-2-oxo-ethyl]-N-[4-(1-oxy-pyridin-4-yl)-benzyl]-3-(4-trifluoromethyl-phenyl)-acrylamide] |  | < 7.8

Now from value to compound, other results behind:

IC50 (Plasmodium falciparum) [nM] | SMILES | IC50 [nM]
4 | Cc1nc(C)c(C=CC(=O)N(Cc2ccc(-c3ccncc3)cc2)[C@@H](Cc2ccccc2)C(=O)N2CCc3ccccc3C2)s1 [Example 247, (S)—N-[1-Benzyl-2-(3,4-dihydro-1H-isoquinolin-2-yl)-2-oxo-ethyl]-3-(2,4-dimethyl-thiazol-5-yl)-N-(4-pyridin-4-yl-benzyl)-acrylamide] | 
2 | Cc1c(C=CC(=O)N(Cc2ccc(-c3ccncc3)cc2)[C@@H](Cc2ccccc2)C(=O)N2CCc3ccccc3C2)cnn1C [Example 250, (S)—N-[1-Benzyl-2-(3,4-dihydro-1H-isoquinolin-2-yl)-2-oxo-ethyl]-3-(1,5-dimethyl-1H-pyrazol-4-yl)-N-(4-pyridin-4-yl-benzyl)-acrylamide] | 
